This passage reports Ki results from ChEMBL document CHEMBL1136646, “Biphenyls as potent vitronectin receptor antagonists. Part 2: biphenylalanine ureas” (Bioorg Med Chem Lett, 2003).

The target in this assay is Integrin alpha-V/beta-3 (Homo sapiens, UniProt P05106+P06756). As to the kind of experiment: Binding affinity towards vitronectin receptor (alpha V-beta3) was determined. Format: protein-complex assay.
Sequence of Integrin alpha-V/beta-3 (P05106 27-788 limits assumed): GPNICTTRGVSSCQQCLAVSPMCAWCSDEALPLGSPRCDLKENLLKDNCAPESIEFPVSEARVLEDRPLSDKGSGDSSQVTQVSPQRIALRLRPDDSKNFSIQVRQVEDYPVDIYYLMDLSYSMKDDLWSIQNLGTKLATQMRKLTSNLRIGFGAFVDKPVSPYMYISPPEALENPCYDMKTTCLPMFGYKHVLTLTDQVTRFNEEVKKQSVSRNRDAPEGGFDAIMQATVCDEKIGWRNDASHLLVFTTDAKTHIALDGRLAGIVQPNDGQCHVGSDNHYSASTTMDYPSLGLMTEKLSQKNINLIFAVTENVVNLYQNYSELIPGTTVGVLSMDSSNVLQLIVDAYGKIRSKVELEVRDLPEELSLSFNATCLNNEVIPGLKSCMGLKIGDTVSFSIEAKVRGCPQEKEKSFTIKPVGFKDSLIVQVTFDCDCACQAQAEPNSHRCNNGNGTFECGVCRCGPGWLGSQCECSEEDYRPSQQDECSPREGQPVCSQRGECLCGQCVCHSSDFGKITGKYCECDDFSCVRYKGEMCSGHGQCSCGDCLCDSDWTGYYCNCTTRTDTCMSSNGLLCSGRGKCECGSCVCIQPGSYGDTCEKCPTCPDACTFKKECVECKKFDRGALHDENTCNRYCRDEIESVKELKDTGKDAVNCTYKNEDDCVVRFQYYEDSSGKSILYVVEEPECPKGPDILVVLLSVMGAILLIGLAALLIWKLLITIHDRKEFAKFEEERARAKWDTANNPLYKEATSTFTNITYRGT
Sequence of Integrin alpha-V/beta-3 (P06756 31-889 limits assumed): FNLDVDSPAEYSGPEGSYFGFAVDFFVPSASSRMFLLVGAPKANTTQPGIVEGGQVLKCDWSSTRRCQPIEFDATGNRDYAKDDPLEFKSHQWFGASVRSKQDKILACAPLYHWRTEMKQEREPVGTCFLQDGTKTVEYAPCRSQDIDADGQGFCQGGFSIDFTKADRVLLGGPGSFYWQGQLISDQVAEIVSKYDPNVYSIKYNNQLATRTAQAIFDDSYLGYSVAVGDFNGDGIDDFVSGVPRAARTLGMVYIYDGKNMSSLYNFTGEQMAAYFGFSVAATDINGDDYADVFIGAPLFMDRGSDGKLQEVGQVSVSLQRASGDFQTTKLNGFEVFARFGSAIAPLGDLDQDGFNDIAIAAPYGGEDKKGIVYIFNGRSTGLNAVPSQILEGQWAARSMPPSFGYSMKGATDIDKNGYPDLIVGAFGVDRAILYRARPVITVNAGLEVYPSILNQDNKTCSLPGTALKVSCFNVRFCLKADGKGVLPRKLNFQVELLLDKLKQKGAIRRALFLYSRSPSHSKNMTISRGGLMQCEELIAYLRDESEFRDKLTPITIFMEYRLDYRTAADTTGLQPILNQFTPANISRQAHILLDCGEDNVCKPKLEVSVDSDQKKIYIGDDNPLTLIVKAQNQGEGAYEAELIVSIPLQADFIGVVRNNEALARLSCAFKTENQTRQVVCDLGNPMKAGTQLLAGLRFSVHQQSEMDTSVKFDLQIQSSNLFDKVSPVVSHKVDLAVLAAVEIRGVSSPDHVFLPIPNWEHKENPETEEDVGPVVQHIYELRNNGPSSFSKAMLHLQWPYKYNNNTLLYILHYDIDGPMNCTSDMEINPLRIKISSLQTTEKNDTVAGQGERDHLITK
Sequence of Integrin alpha-V/beta-3 (P06756 891-1048 limits assumed): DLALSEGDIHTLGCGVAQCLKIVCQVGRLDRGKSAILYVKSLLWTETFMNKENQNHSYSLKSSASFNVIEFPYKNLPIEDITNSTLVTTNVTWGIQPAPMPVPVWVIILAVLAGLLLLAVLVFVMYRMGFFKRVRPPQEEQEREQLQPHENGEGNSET

By Ki is commonly meant a measure of affinity in units of concentration, obtained from inhibition or displacement. Higher therefore signals weaker binding. `CCCNC(=O)Nc1cccc(-c2ccc(C[C@H](NS(=O)(=O)c3c(C)cc(C)cc3C)C(=O)O)cc2)c1` yielded a Ki of 4 nM.

In the case of `Cc1cc(C)c(S(=O)(=O)N[C@@H](Cc2ccc(-c3cccc(NC(N)=O)c3)cc2)C(=O)O)c(C)c1`, the affinity corresponds to a Ki of 80 nM.

As for `CCCNC(=O)Nc1cccc(-c2ccc(C[C@H](NS(=O)(=O)C[C@]34CCC(CC3=O)C4(C)C)C(=O)O)cc2)c1`, affinity was put at a Ki of 1 nM.

As to `CCCNC(=O)Nc1cccc(-c2ccc(C[C@H](NC(=O)NCc3ccccc3)C(=O)O)cc2)c1`, the Ki was 850 nM.

Molecule `Cc1cc(C)c(S(=O)(=O)N[C@@H](Cc2ccc(-c3cccc(NC(=O)NCC(F)(F)C(F)(F)F)c3)cc2)C(=O)O)c(C)c1` had a Ki of 80 nM.

`Cc1cc(C)c(S(=O)(=O)N[C@@H](Cc2ccc(-c3cccc(NC(=O)NCc4ccc(C(F)(F)F)cc4)c3)cc2)C(=O)O)c(C)c1`: the Ki worked out at 1000 nM.

`CCCNC(=O)Nc1cccc(-c2ccc(C[C@H](NC(=O)c3ccc(OC)cc3)C(=O)O)cc2)c1`: the Ki is over 10000 nM.

`CCCNC(=O)Nc1cccc(-c2ccc(C[C@H](NS(=O)(=O)c3ccc(Cl)cc3C(F)(F)F)C(=O)O)cc2)c1` came in with a Ki of 100 nM.

For `CCCNC(=O)Nc1cccc(-c2ccc(C[C@H](NS(=O)(=O)c3cc(Cl)ccc3OC)C(=O)O)cc2)c1`, the inhibitory constant (Ki) turned out to be 1700 nM.

Turning to `CCC(C)NC(=O)Nc1cccc(-c2ccc(C[C@H](NS(=O)(=O)c3c(C)cc(C)cc3C)C(=O)O)cc2)c1` (stereo partly drawn), the affinity corresponds to a Ki of 74 nM.

For the molecule `Cc1cc(C)c(S(=O)(=O)N[C@@H](Cc2ccc(-c3cccc(NC(=O)NCc4ccccn4)c3)cc2)C(=O)O)c(C)c1`, the Ki was over 10000 nM.

`CCCNC(=O)Nc1cccc(-c2ccc(C[C@H](NS(C)(=O)=O)C(=O)O)cc2)c1` displayed a Ki of 75 nM.

Molecule `Cc1cc(C)c(S(=O)(=O)N[C@@H](Cc2ccc(-c3ccc(C)c(NC(=O)NC4CCCC4)c3)cc2)C(=O)O)c(C)c1` gave a Ki of 100 nM.

As to `Cc1cc(C)c(S(=O)(=O)N[C@@H](Cc2ccc(-c3cccc(NC(=O)NC4CC4)c3)cc2)C(=O)O)c(C)c1`, the affinity, expressed as Ki, was 2.5 nM. This Ki is about 40-fold lower than that of the molecule before.

In the case of `CCCNC(=O)Nc1cccc(-c2ccc(C[C@H](NS(=O)(=O)c3cccc(Cl)c3Cl)C(=O)O)cc2)c1`, the Ki worked out at 170 nM.

As to `CCCNC(=O)Nc1cccc(-c2ccc(C[C@H](NS(=O)(=O)c3ccccc3S(C)(=O)=O)C(=O)O)cc2)c1`, the Ki was over 10000 nM.

In turn, `CCCNC(=O)Nc1cccc(-c2ccc(C[C@H](NC(=O)OCC(C)C)C(=O)O)cc2)c1` showed a Ki of 900 nM.

`Cc1cc(C)c(S(=O)(=O)N[C@@H](Cc2ccc(-c3cccc(NC(=O)Nc4nc5ccccc5[nH]4)c3)cc2)C(=O)O)c(C)c1` showed a Ki of over 10000 nM.

The molecule `CCCNC(=O)Nc1cccc(-c2ccc(C[C@H](NC(=O)OCc3ccccc3)C(=O)O)cc2)c1` gave a Ki of 800 nM. This counts as sub-micromolar.

On to `Cc1cc(C)c(S(=O)(=O)N[C@@H](Cc2ccc(-c3cccc(NC(=O)NCC(C)C)c3)cc2)C(=O)O)c(C)c1`, for which the affinity, expressed as Ki, was 10 nM.

In the case of `Cc1cc(C)c(S(=O)(=O)N[C@@H](Cc2ccc(-c3cccc(NC(=O)NCC(F)(F)F)c3)cc2)C(=O)O)c(C)c1`, the Ki stood at 20 nM. This Ki lies about 2-fold higher than the previous one.

In turn, `CCCNC(=O)Nc1cccc(-c2ccc(C[C@H](NS(=O)(=O)c3cc(OC)ccc3OC)C(=O)O)cc2)c1` gave an inhibition constant (Ki) of 500 nM.

In the case of `CNC(=O)Nc1cccc(-c2ccc(C[C@H](NS(=O)(=O)c3c(C)cc(C)cc3C)C(=O)O)cc2)c1`, the Ki came to 160 nM. Compared with the last molecule, the Ki is about 3.1-fold lower.

For `Cc1cc(C)c(S(=O)(=O)N[C@@H](Cc2ccc(-c3cccc(NC(=O)NCCSC(F)(F)F)c3)cc2)C(=O)O)c(C)c1`, the affinity corresponds to a Ki of 8 nM.

For the molecule `CCCNC(=O)Nc1cccc(-c2ccc(C[C@H](NS(=O)(=O)c3ccccc3C)C(=O)O)cc2)c1`, the affinity, expressed as Ki, was 70 nM.

For `Cc1cc(C)c(S(=O)(=O)N[C@@H](Cc2ccc(-c3ccc(C)c(NC(=O)NC4CC4)c3)cc2)C(=O)O)c(C)c1`, the Ki was determined as 10 nM. This Ki lies about 7-fold lower than the previous one.

`CCCNC(=O)Nc1cccc(-c2ccc(C[C@H](NS(=O)(=O)c3ccc(OC)c(OC)c3)C(=O)O)cc2)c1` had a Ki of 750 nM.

On to `CCCNC(=O)Nc1cccc(-c2ccc(C[C@H](NS(=O)(=O)Cc3ccccc3)C(=O)O)cc2)c1`, for which the Ki came to 300 nM.

Consider `CCCNC(=O)Nc1cccc(-c2ccc(C[C@H](NC(N)=O)C(=O)O)cc2)c1`, for which the Ki came out at 560 nM.

`CCCNC(=O)Nc1cccc(-c2cccc(C[C@H](NS(=O)(=O)c3c(C)cc(C)cc3C)C(=O)O)c2)c1` registered a Ki of over 10000 nM.

For `Cc1cc(C)c(S(=O)(=O)N[C@@H](Cc2ccc(-c3cccc(NC(=N)N)c3)cc2)C(=O)O)c(C)c1`, affinity was put at a Ki of 11 nM.

In turn, `Cc1cc(C)c(S(=O)(=O)N[C@@H](Cc2ccc(-c3cccc(NC(=O)NC(C)C)c3)cc2)C(=O)O)c(C)c1` yielded a Ki of 14 nM.

`CCCNC(=O)Nc1cccc(-c2ccc(C[C@H](NC(=O)OCC(C)(C)C)C(=O)O)cc2)c1`: affinity was put at a Ki of 800 nM.

Take `CCCNC(=O)Nc1cccc(-c2ccc(C[C@H](NC(=O)OC3CCCC3)C(=O)O)cc2)c1`: the affinity corresponds to a Ki of 210 nM.

The molecule `CCCNC(=O)Nc1cccc(-c2ccc(C[C@H](NC(=O)Oc3ccc(OC)cc3)C(=O)O)cc2)c1` returned a Ki of 300 nM.

As to `Cc1cc(C)c(S(=O)(=O)N[C@@H](Cc2ccc(-c3cccc(NC(=O)NCc4ccccc4)c3)cc2)C(=O)O)c(C)c1`, the Ki came to 60 nM.

On to `CCCNC(=O)Nc1cccc(-c2ccc(C[C@H](NC(=O)OCC)C(=O)O)cc2)c1`, for which the inhibition constant Ki is 120 nM.

Molecule `CCCNC(=O)Nc1cccc(-c2ccc(C[C@H](NS(=O)(=O)c3ccccc3C(F)(F)F)C(=O)O)cc2)c1` showed a Ki of over 10000 nM.
